Several values for one entry are separate records, joined by “and”; a condition that tells them apart may be missing. Equal values may be shown once. ± gives the expanded uncertainty stated by the source.
Cl[C@H]1[C@H](Cl)[C@@H](Cl)[C@@H](Cl)[C@H](Cl)[C@H]1Cl [γ-1,2,3,4,5,6-hexachlorocyclohexane]
vapor or sublimation pressure
Details	Crystal	Liquid
347.1 K, isothermal thermogravimetry	0.0017 ± 0.0001 kPa	–
349.8 K, isothermal thermogravimetry	0.0019 ± 0.0001 kPa	–
349.9 K, isothermal thermogravimetry	0.002 ± 0.0001 kPa	–
351.9 K, isothermal thermogravimetry	0.0025 ± 0.0001 kPa	–
352 K, isothermal thermogravimetry	0.0027 ± 0.0002 kPa	–
354.4 K, isothermal thermogravimetry	0.0034 ± 0.0002 kPa	–
355 K, isothermal thermogravimetry	0.0031 ± 0.0002 kPa	–
356.2 K, isothermal thermogravimetry	0.0039 ± 0.0002 kPa	–
356.4 K, isothermal thermogravimetry	0.0042 ± 0.0002 kPa	–
357.8 K, isothermal thermogravimetry	0.004 ± 0.0002 kPa	–
359.3 K, isothermal thermogravimetry	0.005 ± 0.0003 kPa	–
361.5 K, isothermal thermogravimetry	0.0052 ± 0.0003 kPa	–
363.2 K, isothermal thermogravimetry	0.006 ± 0.0003 kPa	–
364 K, isothermal thermogravimetry	0.0058 ± 0.0003 kPa	–
364.9 K, isothermal thermogravimetry	0.0082 ± 0.0004 kPa	–
367.2 K, isothermal thermogravimetry	0.0075 ± 0.0004 kPa	–
368.1 K, isothermal thermogravimetry	0.0104 ± 0.0005 kPa	–
371.1 K, isothermal thermogravimetry	0.0122 ± 0.0006 kPa	–
372.9 K, isothermal thermogravimetry	0.0122 ± 0.0006 kPa	–
374.3 K, isothermal thermogravimetry	0.0169 ± 0.0008 kPa	–
376.2 K, isothermal thermogravimetry	0.017 ± 0.0009 kPa	–
377.4 K, isothermal thermogravimetry	0.0225 ± 0.0011 kPa	–
377.5 K, non-isothermal thermogravimetry	0.024 ± 0.001 kPa	0.024 ± 0.001 kPa
378.3 K, non-isothermal thermogravimetry	0.026 ± 0.001 kPa	0.026 ± 0.001 kPa
379.1 K, non-isothermal thermogravimetry	0.027 ± 0.001 kPa	0.027 ± 0.001 kPa
379.3 K, isothermal thermogravimetry	0.0228 ± 0.0011 kPa	–
379.9 K, non-isothermal thermogravimetry	0.028 ± 0.002 kPa	0.028 ± 0.002 kPa
380.7 K, isothermal thermogravimetry	0.0294 ± 0.0015 kPa	–
380.7 K, non-isothermal thermogravimetry	0.03 ± 0.002 kPa	0.03 ± 0.002 kPa
381.5 K, non-isothermal thermogravimetry	0.032 ± 0.002 kPa	0.032 ± 0.002 kPa
381.8 K, isothermal thermogravimetry	0.0277 ± 0.0014 kPa	–
382.4 K, non-isothermal thermogravimetry	0.034 ± 0.002 kPa	0.034 ± 0.002 kPa
383.2 K, non-isothermal thermogravimetry	0.037 ± 0.002 kPa	0.037 ± 0.002 kPa
384 K, isothermal thermogravimetry	0.0365 ± 0.0018 kPa	–
384 K, non-isothermal thermogravimetry	0.038 ± 0.002 kPa	0.038 ± 0.002 kPa
384.8 K, non-isothermal thermogravimetry	0.041 ± 0.002 kPa	0.041 ± 0.002 kPa
386.4 K, non-isothermal thermogravimetry	–	0.044 ± 0.002 kPa
387 K, non-isothermal thermogravimetry	–	0.049 ± 0.003 kPa
387.4 K, isothermal thermogravimetry	–	0.045 ± 0.002 kPa
387.6 K, non-isothermal thermogravimetry	–	0.044 ± 0.002 kPa
387.9 K, non-isothermal thermogravimetry	–	0.046 ± 0.002 kPa
388.2 K, non-isothermal thermogravimetry	–	0.044 ± 0.002 kPa
388.6 K, non-isothermal thermogravimetry	–	0.043 ± 0.002 kPa
389.2 K, isothermal thermogravimetry	–	0.049 ± 0.003 kPa
389.9 K, isothermal thermogravimetry	–	0.055 ± 0.003 kPa
390.5 K, isothermal thermogravimetry	–	0.053 ± 0.003 kPa
390.8 K, non-isothermal thermogravimetry	–	0.051 ± 0.003 kPa
392.1 K, isothermal thermogravimetry	–	0.06 ± 0.003 kPa
392.1 K, non-isothermal thermogravimetry	–	0.065 ± 0.003 kPa
393.2 K, non-isothermal thermogravimetry	–	0.06 ± 0.003 kPa
393.5 K, isothermal thermogravimetry	–	0.07 ± 0.004 kPa
393.6 K, isothermal thermogravimetry	–	0.065 ± 0.003 kPa
394.1 K, non-isothermal thermogravimetry	–	0.067 ± 0.003 kPa
395 K, non-isothermal thermogravimetry	–	0.07 ± 0.004 kPa
395.9 K, non-isothermal thermogravimetry	–	0.079 ± 0.004 kPa
396.6 K, isothermal thermogravimetry	–	0.08 ± 0.004 kPa
396.7 K, non-isothermal thermogravimetry	–	0.085 ± 0.004 kPa
397.6 K, non-isothermal thermogravimetry	–	0.074 ± 0.004 kPa
398.5 K, non-isothermal thermogravimetry	–	0.074 ± 0.004 kPa
398.7 K, isothermal thermogravimetry	–	0.088 ± 0.004 kPa
398.9 K, isothermal thermogravimetry	–	0.086 ± 0.004 kPa
399 K, isothermal thermogravimetry	–	0.093 ± 0.005 kPa
399.9 K, isothermal thermogravimetry	–	0.093 ± 0.005 kPa
400.2 K, non-isothermal thermogravimetry	–	0.088 ± 0.004 kPa
400.3 K, isothermal thermogravimetry	–	0.095 ± 0.005 kPa
401 K, non-isothermal thermogravimetry	–	0.1 ± 0.005 kPa
401.7 K, isothermal thermogravimetry	–	0.103 ± 0.005 kPa
401.9 K, non-isothermal thermogravimetry	–	0.109 ± 0.006 kPa
402 K, non-isothermal thermogravimetry	–	0.095 ± 0.006 kPa
402.8 K, non-isothermal thermogravimetry	–	0.106 ± 0.005 kPa
403.6 K, non-isothermal thermogravimetry	–	0.104 ± 0.005 kPa
403.7 K, isothermal thermogravimetry	–	0.114 ± 0.006 kPa and 0.111 ± 0.006 kPa
404.4 K, non-isothermal thermogravimetry	–	0.125 ± 0.006 kPa
405.3 K, non-isothermal thermogravimetry	–	0.131 ± 0.007 kPa
406.1 K, non-isothermal thermogravimetry	–	0.139 ± 0.007 kPa
406.5 K, isothermal thermogravimetry	–	0.122 ± 0.006 kPa
406.9 K, isothermal thermogravimetry	–	0.133 ± 0.007 kPa
406.9 K, non-isothermal thermogravimetry	–	0.119 ± 0.006 kPa
407.7 K, non-isothermal thermogravimetry	–	0.153 ± 0.008 kPa
408.5 K, non-isothermal thermogravimetry	–	0.142 ± 0.007 kPa
409.3 K, non-isothermal thermogravimetry	–	0.158 ± 0.008 kPa
410.2 K, non-isothermal thermogravimetry	–	0.148 ± 0.007 kPa
411 K, non-isothermal thermogravimetry	–	0.174 ± 0.009 kPa
411.8 K, non-isothermal thermogravimetry	–	0.168 ± 0.008 kPa
412.6 K, non-isothermal thermogravimetry	–	0.177 ± 0.009 kPa
413.4 K, non-isothermal thermogravimetry	–	0.174 ± 0.009 kPa
414.3 K, non-isothermal thermogravimetry	–	0.192 ± 0.01 kPa
415.1 K, non-isothermal thermogravimetry	–	0.202 ± 0.01 kPa
415.9 K, non-isothermal thermogravimetry	–	0.195 ± 0.01 kPa
416.8 K, non-isothermal thermogravimetry	–	0.211 ± 0.011 kPa
417.6 K, non-isothermal thermogravimetry	–	0.229 ± 0.011 kPa
418.4 K, non-isothermal thermogravimetry	–	0.248 ± 0.012 kPa
419.3 K, non-isothermal thermogravimetry	–	0.261 ± 0.013 kPa
420.1 K, non-isothermal thermogravimetry	–	0.257 ± 0.013 kPa
421 K, non-isothermal thermogravimetry	–	0.254 ± 0.013 kPa
421.8 K, non-isothermal thermogravimetry	–	0.267 ± 0.013 kPa
422.7 K, non-isothermal thermogravimetry	–	0.286 ± 0.014 kPa
423.6 K, non-isothermal thermogravimetry	–	0.306 ± 0.015 kPa
424.5 K, non-isothermal thermogravimetry	–	0.301 ± 0.015 kPa
425.4 K, non-isothermal thermogravimetry	–	0.347 ± 0.017 kPa
426.4 K, non-isothermal thermogravimetry	–	0.366 ± 0.018 kPa
426.8 K, non-isothermal thermogravimetry	–	0.371 ± 0.019 kPa
427.5 K, non-isothermal thermogravimetry	–	0.405 ± 0.02 kPa
428.6 K, non-isothermal thermogravimetry	–	0.367 ± 0.021 kPa
428.7 K, non-isothermal thermogravimetry	–	0.416 ± 0.023 kPa

Clc1c(Cl)c(Cl)c(Cl)c(Cl)c1Cl [hexachlorobenzene]
vapor or sublimation pressure, Crystal
Details	isothermal thermogravimetry	non-isothermal thermogravimetry
359.7 K	0.002 ± 0.001 kPa	–
360.2 K	0.003 ± 0.001 kPa	–
361.6 K	0.003 ± 0.001 kPa	–
362.5 K	0.003 ± 0.001 kPa	–
363.6 K	0.004 ± 0.001 kPa	–
364.4 K	0.003 ± 0.001 kPa	–
364.5 K	0.004 ± 0.001 kPa	–
365.4 K	0.004 ± 0.001 kPa	–
365.5 K	0.004 ± 0.001 kPa	–
367.4 K	0.005 ± 0.001 kPa	–
368 K	0.005 ± 0.001 kPa	–
369.5 K	0.005 ± 0.001 kPa	–
370.3 K	0.005 ± 0.001 kPa	–
371 K	0.006 ± 0.001 kPa	–
371.5 K	0.006 ± 0.001 kPa and 0.005 ± 0.001 kPa	–
374.1 K	0.007 ± 0.001 kPa	–
377.1 K	0.008 ± 0.001 kPa	–
378.1 K	0.008 ± 0.001 kPa	–
378.2 K	0.008 ± 0.001 kPa	–
381.4 K	0.012 ± 0.001 kPa and 0.011 ± 0.001 kPa	–
382.3 K	0.012 ± 0.001 kPa	–
382.4 K	0.011 ± 0.001 kPa	–
383.1 K	0.012 ± 0.001 kPa	–
384.4 K	0.014 ± 0.001 kPa	–
385.8 K	0.015 ± 0.001 kPa	–
386.2 K	0.015 ± 0.001 kPa	–
386.6 K	0.013 ± 0.001 kPa	–
388.5 K	0.016 ± 0.001 kPa	–
392.7 K	0.021 ± 0.001 kPa	–
393.3 K	0.024 ± 0.001 kPa	–
396.3 K	0.026 ± 0.001 kPa	–
396.7 K	0.026 ± 0.001 kPa	–
397.5 K	–	0.038 ± 0.002 kPa
399.6 K	0.031 ± 0.002 kPa	–
400.4 K	–	0.048 ± 0.002 kPa
400.6 K	0.038 ± 0.002 kPa	–
400.8 K	–	0.041 ± 0.002 kPa
401.2 K	–	0.048 ± 0.002 kPa
402 K	–	0.047 ± 0.002 kPa
402.8 K	–	0.057 ± 0.003 kPa
403.2 K	0.044 ± 0.002 kPa	–
403.6 K	–	0.05 ± 0.003 kPa
404.1 K	–	0.061 ± 0.003 kPa
404.4 K	0.043 ± 0.002 kPa	–
404.5 K	–	0.051 ± 0.003 kPa
404.9 K	–	0.058 ± 0.003 kPa
405.3 K	–	0.053 ± 0.003 kPa
405.8 K	–	0.063 ± 0.003 kPa
406.1 K	–	0.052 ± 0.003 kPa
406.5 K	–	0.06 ± 0.003 kPa
407 K	–	0.064 ± 0.003 kPa
407.4 K	–	0.061 ± 0.003 kPa
407.8 K	–	0.064 ± 0.003 kPa
408.2 K	–	0.07 ± 0.004 kPa
408.3 K	0.057 ± 0.003 kPa	–
408.6 K	–	0.066 ± 0.003 kPa
409 K	–	0.078 ± 0.004 kPa
409.4 K	–	0.071 ± 0.004 kPa
409.8 K	–	0.079 ± 0.004 kPa
410.2 K	–	0.076 ± 0.004 kPa
410.6 K	–	0.073 ± 0.004 kPa
411 K	–	0.074 ± 0.004 kPa
411.4 K	–	0.089 ± 0.004 kPa
411.9 K	–	0.069 ± 0.004 kPa
412.3 K	0.066 ± 0.003 kPa	0.078 ± 0.004 kPa
412.7 K	–	0.084 ± 0.004 kPa
413.2 K	–	0.083 ± 0.004 kPa
413.6 K	–	0.085 ± 0.004 kPa
414 K	–	0.088 ± 0.004 kPa
414.4 K	–	0.093 ± 0.005 kPa
414.9 K	–	0.093 ± 0.005 kPa
415.3 K	–	0.089 ± 0.004 kPa
415.7 K	–	0.101 ± 0.005 kPa
416.1 K	–	0.094 ± 0.005 kPa
416.5 K	–	0.101 ± 0.005 kPa
417 K	–	0.101 ± 0.005 kPa
417.4 K	–	0.11 ± 0.006 kPa
417.8 K	–	0.118 ± 0.006 kPa
418.2 K	–	0.112 ± 0.006 kPa
418.6 K	–	0.113 ± 0.006 kPa
419.1 K	–	0.129 ± 0.006 kPa
419.5 K	–	0.131 ± 0.007 kPa
419.9 K	–	0.118 ± 0.006 kPa
420.3 K	–	0.134 ± 0.007 kPa
420.7 K	–	0.134 ± 0.007 kPa
421.1 K	–	0.128 ± 0.006 kPa
421.5 K	–	0.131 ± 0.007 kPa
421.9 K	–	0.144 ± 0.007 kPa
422.3 K	–	0.144 ± 0.007 kPa
422.8 K	–	0.143 ± 0.007 kPa
423.2 K	–	0.159 ± 0.008 kPa
423.6 K	–	0.146 ± 0.007 kPa
424 K	–	0.149 ± 0.007 kPa
424.4 K	–	0.152 ± 0.008 kPa
424.8 K	–	0.169 ± 0.008 kPa
425.7 K	–	0.173 ± 0.009 kPa
